Assay [1] concerns human lung cancer strain NCI-H441. In words: cells. Particulars: NCI-H441, 96 h, read-out: NCI-H441 IC50 (nM).
The target of assay [2] is GDP-bound NRAS wild-type protein (Homo sapiens, UniProt P01111). The experiment in a line: Binding to NRAS by surface plasmon resonance (SPR), Single Cycle Kinetics. Particulars: SPR; for NRAS/KRAS (ratio of KD value for GDP-bound NRAS wild-type protein to KD value for KRAS): KD ratio class; for NRAS/KRAS (ratio of KD value with respect to GDP-bound NRAS wild-type protein to KD value with respect to KRAS): GDP-bound wild-type proteins.
Chain of GDP-bound NRAS wild-type protein (P01111 whole entry): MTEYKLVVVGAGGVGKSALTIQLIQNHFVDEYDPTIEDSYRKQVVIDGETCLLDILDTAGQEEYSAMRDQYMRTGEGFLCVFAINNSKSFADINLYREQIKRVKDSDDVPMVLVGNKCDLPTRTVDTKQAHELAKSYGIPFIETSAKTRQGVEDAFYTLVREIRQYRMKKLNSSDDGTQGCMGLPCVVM

The target of assay [3] is GDP-bound HRAS wild-type protein (Homo sapiens, UniProt P01112). In words: Binding to HRAS by surface plasmon resonance (SPR), Single Cycle Kinetics. To be noted: SPR; for HRAS/KRAS (ratio of KD value for GDP-bound HRAS wild-type protein to KD value for KRAS): KD ratio class; for HRAS/KRAS (ratio of KD value with respect to GDP-bound HRAS wild-type protein to KD value with respect to KRAS): GDP-bound wild-type proteins.
Chain of GDP-bound HRAS wild-type protein (P01112 whole entry): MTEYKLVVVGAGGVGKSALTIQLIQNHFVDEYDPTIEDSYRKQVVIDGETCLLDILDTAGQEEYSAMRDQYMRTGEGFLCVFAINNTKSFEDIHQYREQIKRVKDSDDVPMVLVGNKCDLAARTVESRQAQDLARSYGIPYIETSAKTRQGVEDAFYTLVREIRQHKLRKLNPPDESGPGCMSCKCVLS

Consider `CCO[C@@H]1C[C@H]2C(=O)NC3(CCC3)C(=O)N(C)[C@@H](C(CC)CC)C(=O)N(C)[C@H](C(=O)N(C)C)CC(=O)N(C)[C@@H](CC3CC3)C(=O)N[C@@H]([C@@H](C)CC)C(=O)N(C)CC(=O)N(C)[C@H]3C/C=C\CCN(C3=O)[C@@H](Cc3ccc(C(F)(F)F)cc3)C(=O)N(C)CC(=O)N[C@@H](CCc3cc(F)c(C(F)(F)F)c(F)c3)C(=O)N2C1` [PP1203], for which the IC50 in assay [1] came to 20.8 nM. The “NRAS/KRAS (ratio of KD value for GDP-bound NRAS wild-type protein to KD value for KRAS)” value in assay [2] was “A (a compound having 10 or more and less than 20 is denoted as A)”. Moreover, in assay [3], the “HRAS/KRAS (ratio of KD value for GDP-bound HRAS wild-type protein to KD value for KRAS)” value was “A (a compound having 10 or more and less than 20 is denoted as A)”.

Regarding `CCO[C@@H]1C[C@H]2C(=O)NC3(CCC3)C(=O)N(C)[C@@H](C(CC)CC)C(=O)N(C)[C@H](C(=O)N(C)C)CC(=O)N(C)[C@@H](COC)C(=O)N[C@@H]([C@@H](C)CC)C(=O)N(C)CC(=O)N(C)[C@H]3C/C=C\CCN(C3=O)[C@@H](Cc3ccc(C(F)(F)F)cc3)C(=O)N(C)CC(=O)N[C@@H](CCc3cc(F)c(C(F)(F)F)c(F)c3)C(=O)N2C1` [PP1205], the 50% inhibitory concentration (IC50) in assay [1] stood at 25.4 nM. Further, the “NRAS/KRAS (ratio of KD value for GDP-bound NRAS wild-type protein to KD value for KRAS)” value in assay [2] is reported as “AA (a compound having 20 or more is denoted as AA)”. In addition, the “HRAS/KRAS (ratio of KD value for GDP-bound HRAS wild-type protein to KD value for KRAS)” value in assay [3] is “A (a compound having 10 or more and less than 20 is denoted as A)”.

As to `CCO[C@@H]1C[C@H]2C(=O)NC3(CCC3)C(=O)N(C)[C@@H](C(CC)CC)C(=O)N(C)[C@H](C)CC(=O)N(C)[C@@H](CC3CCCC3)C(=O)N[C@@H]([C@@H](C)CC)C(=O)N(C)CC(=O)N(C)[C@H]3C/C=C\CCN(C3=O)[C@@H](Cc3ccc(F)cc3)C(=O)N(C)CC(=O)N[C@@H](CCc3cc(F)c(C(F)(F)F)c(F)c3)C(=O)N2C1` [PP1523], the IC50 in assay [1] was 320 nM.

As for `CCO[C@@H]1C[C@H]2C(=O)NC3(CCC3)C(=O)N(C)[C@@H](C(CC)CC)C(=O)N3CCC[C@@H]3CC(=O)N(C)[C@@H](CC)C(=O)N[C@@H]([C@@H](C)CC)C(=O)N(C)CC(=O)N(C)[C@H]3C/C=C\CCN(C3=O)[C@@H](Cc3ccc(C(F)(F)F)cc3)C(=O)N(C)CC(=O)N[C@@H](CCc3cc(F)c(C(F)(F)F)c(F)c3)C(=O)N2C1` [PP1607], the IC50 in assay [1] stood at 39.3 nM. For the same compound, the “HRAS/KRAS (ratio of KD value for GDP-bound HRAS wild-type protein to KD value for KRAS)” value in assay [3] is “A (a compound having 10 or more and less than 20 is denoted as A)”.

For `CCC[C@H]1C(=O)N[C@@H]([C@@H](C)CC)C(=O)N(C)CC(=O)N(C)[C@H]2C/C=C\CCN(C2=O)[C@@H](Cc2ccc(C(F)(F)F)cc2)C(=O)N(C)CC(=O)N[C@@H](CCc2cc(F)c(C(F)(F)F)c(F)c2)C(=O)N2C[C@H](OCC)C[C@H]2C(=O)N(C)C2(CCC2)C(=O)N(C)[C@@H](C2CCCC2)C(=O)N(C)[C@H](C(=O)N2CCCCC2)CC(=O)N1C` [PP3118, (2S,8S,12R,14S,20S,23S,27S,30S,36S,38Z)-20-cyclopentyl-8-[2-[3,5-difluoro-4-(trifluoromethyl)phenyl]ethyl]-12-ethoxy-4,16,19,22,26,32,35-heptamethyl-30-[(1S)-1-methylpropyl]-23-(piperidine-1-carbonyl)-27-propyl-2-[[4-(trifluoromethyl)phenyl]methyl]spiro[1,4,7,10,16,19,22,26,29,32,35-undecazatricyclo[34.5.1.0^10,14]dotetracont-38-ene-17,1′-cyclobutane]-3,6,9,15,18,21,25,28,31,34,42-undecone], the “NRAS/KRAS (ratio of KD value with respect to GDP-bound NRAS wild-type protein to KD value with respect to KRAS)” value in assay [2] is “A (a compound having 10 or more and less than 20 is denoted as A)”. Moreover, the “HRAS/KRAS (ratio of KD value with respect to GDP-bound HRAS wild-type protein to KD value with respect to KRAS)” value in assay [3] was “B (a compound having 3 or more and less than 10 is denoted as B)”.

As for `CCC[C@H]1C(=O)N[C@@H]([C@@H](C)CC)C(=O)N(C)CC(=O)N(C)[C@H]2C/C=C\CCN(C2=O)[C@@H](Cc2ccc(C)cc2)C(=O)N(C)CC(=O)N[C@@H](CCc2cc(F)c(C(F)(F)F)c(F)c2)C(=O)N2C[C@H](OCC)C[C@H]2C(=O)N(C)C2(CCC2)C(=O)N(C)[C@@H](C2CCCC2)C(=O)N(C)[C@H](C(=O)N2CCCCC2)CC(=O)N1C` [PP3119, (2S,8S,12R,14S,20S,23S,27S,30S,36S,38Z)-20-cyclopentyl-8-[2-[3,5-difluoro-4-(trifluoromethyl)phenyl]ethyl]-12-ethoxy-4,16,19,22,26,32,35-heptamethyl-30-[(1S)-1-methylpropyl]-23-(piperidine-1-carbonyl)-27-propyl-2-(p-tolylmethyl)spiro[1,4,7,10,16,19,22,26,29,32,35-undecazatricyclo[34.5.1.0^10,14]dotetracont-38-ene-17,1′-cyclobutane]-3,6,9,15,18,21,25,28,31,34,42-undecone], the “NRAS/KRAS (ratio of KD value with respect to GDP-bound NRAS wild-type protein to KD value with respect to KRAS)” value in assay [2] is “A (a compound having 10 or more and less than 20 is denoted as A)”. The “HRAS/KRAS (ratio of KD value with respect to GDP-bound HRAS wild-type protein to KD value with respect to KRAS)” value in assay [3] was “A (a compound having 10 or more and less than 20 is denoted as A)”.

On to `CCC[C@H]1C(=O)N[C@@H]([C@@H](C)CC)C(=O)N(C)CC(=O)N(C)[C@H]2C/C=C\CCN(C2=O)[C@@H](Cc2ccc(C(F)(F)F)cc2)C(=O)N(C)CC(=O)N[C@@H](CCc2cc(F)c(C(F)(F)F)c(F)c2)C(=O)N2C[C@H](OCC)C[C@H]2C(=O)N(C)C2(CCC2)C(=O)N(C)[C@@H](C2CCCC2)C(=O)N(C)[C@H](C(=O)N2CCCC2)CC(=O)N1C` [PP3120, (2S,8S,12R,14S,20S,23S,27S,30S,36S,38Z)-20-cyclopentyl-8-[2-[3,5-difluoro-4-(trifluoromethyl)phenyl]ethyl]-12-ethoxy-4,16,19,22,26,32,35-heptamethyl-30-[(1S)-1-methylpropyl]-27-propyl-23-(pyrrolidine-1-carbonyl)-2-[[4-(trifluoromethyl)phenyl]methyl]spiro[1,4,7,10,16,19,22,26,29,32,35-undecazatricyclo[34.5.1.0^10,14]dotetracont-38-ene-17,1′-cyclobutane]-3,6,9,15,18,21,25,28,31,34,42-undecone], for which the “NRAS/KRAS (ratio of KD value with respect to GDP-bound NRAS wild-type protein to KD value with respect to KRAS)” value in assay [2] was “AA (a compound having 20 or more is denoted as AA)”. For the same compound, in assay [3], the “HRAS/KRAS (ratio of KD value with respect to GDP-bound HRAS wild-type protein to KD value with respect to KRAS)” value is “A (a compound having 10 or more and less than 20 is denoted as A)”.

For the compound `CCC[C@H]1C(=O)N[C@@H]([C@@H](C)CC)C(=O)N(C)CC(=O)N(C)[C@H]2C/C=C\CCN(C2=O)[C@@H](Cc2ccc(C)cc2)C(=O)N(C)CC(=O)N[C@@H](CCc2cc(F)c(C(F)(F)F)c(F)c2)C(=O)N2C[C@H](OCC)C[C@H]2C(=O)N(C)C2(CCC2)C(=O)N(C)[C@@H](C2CCCC2)C(=O)N(C)[C@H](C(=O)N2CCCC2)CC(=O)N1C` [PP3121, (2S,8S,12R,14S,20S,23S,27S,30S,36S,38Z)-20-cyclopentyl-8-[2-[3,5-difluoro-4-(trifluoromethyl)phenyl]ethyl]-12-ethoxy-4,16,19,22,26,32,35-heptamethyl-30-[(1S)-1-methylpropyl]-27-propyl-2-(p-tolylmethyl)-23-(pyrrolidine-1-carbonyl)spiro[1,4,7,10,16,19,22,26,29,32,35-undecazatricyclo[34.5.1.0^10,14]dotetracont-38-ene-17,1′-cyclobutane]-3,6,9,15,18,21,25,28,31,34,42-undecone], the “NRAS/KRAS (ratio of KD value with respect to GDP-bound NRAS wild-type protein to KD value with respect to KRAS)” value in assay [2] is “A (a compound having 10 or more and less than 20 is denoted as A)”. The “HRAS/KRAS (ratio of KD value with respect to GDP-bound HRAS wild-type protein to KD value with respect to KRAS)” value in assay [3] was “A (a compound having 10 or more and less than 20 is denoted as A)”.

These data come from patent US20250230193A1, “CYCLIC COMPOUND HAVING SELECTIVE KRAS INHIBITORY EFFECT ON HRAS AND NRAS” (CHUGAI SEIYAKU KABUSHIKI KAISHA, priority 2022, published 2025).
